Source: US20230172204A1 (BASF SE, priority 2020, published 2023)

Assays:
[1] = test system: Phakopsora pachyrhizi (F129L); assay: Protective control of soybean rust on soybeans (PHAKPA P2); assay type: in vivo; details: for % PHAKPA (F129L) Disease level P2 at 4 ppm: protective P2, 4 ppm; for % PHAKPA (F129L) Disease level P2 at 4 ppm / % PHAKPA (F129L) Disease level P2 at 16 ppm: soybean rust F129L; for % PHAKPA (F129L) Disease level P2 at 16 ppm: protective P2, 16 ppm; for PHAKPA (F129L) Disease level (%) P2 at 16 ppm / PHAKPA (F129L) Disease level (%) P2 at 4 ppm: P2 protective, % diseased leaf area
[2] = test system: Phakopsora pachyrhizi (F129L); assay: Protective control of soybean rust on soybeans (PHAKPA P6); assay type: in vivo; details: for % PHAKPA (F129L) Disease level P6 at 4 ppm: protective P6, 4 ppm; for % PHAKPA (F129L) Disease level P6 at 4 ppm / % PHAKPA (F129L) Disease level P6 at 16 ppm: soybean rust F129L; for % PHAKPA (F129L) Disease level P6 at 16 ppm: protective P6, 16 ppm; for PHAKPA (F129L) Disease level (%) P6 at 16 ppm / PHAKPA (F129L) Disease level (%) P6 at 4 ppm: P6 protective, % diseased leaf area

## CCc1ccc(/C(C)=N/OCc2c(C)cccc2/C(=N\OC)C(=O)OC)cc1 [compound 183]
[1]
  % PHAKPA (F129L) Disease level P2 at 4 ppm: 16%
  % PHAKPA (F129L) Disease level P2 at 16 ppm: 0%
[2]
  % PHAKPA (F129L) Disease level P6 at 4 ppm: 38%
  % PHAKPA (F129L) Disease level P6 at 16 ppm: 2%

## CNC(=O)/C(=N/OC)c1cccc(C)c1CO/N=C(\C)c1ccc(F)cc1C(F)(F)F [compound 260]
[1]
  % PHAKPA (F129L) Disease level P2 at 4 ppm: 22%
  % PHAKPA (F129L) Disease level P2 at 16 ppm: 0%
[2]
  % PHAKPA (F129L) Disease level P6 at 4 ppm: 22%
  % PHAKPA (F129L) Disease level P6 at 16 ppm: 0%

## CO/N=C(/C(=O)OC)c1cccc(C)c1CO/N=C(\C)c1cc(Cl)ccc1C(F)(F)F [compound 251]
[1]
  % PHAKPA (F129L) Disease level P2 at 4 ppm: 80%
  % PHAKPA (F129L) Disease level P2 at 16 ppm: 80%
[2]
  % PHAKPA (F129L) Disease level P6 at 4 ppm: 80%
  % PHAKPA (F129L) Disease level P6 at 16 ppm: 80%

## CO/N=C(/C(=O)OC)c1ccccc1CO/N=C(\C)c1cccc(F)c1 [reference compound]
[1]
  PHAKPA (F129L) Disease level (%) P2 at 16 ppm: 90%
[2]
  PHAKPA (F129L) Disease level (%) P6 at 16 ppm: 80%

## CO/N=C(\C)c1ccc(/C(C)=N/OCc2c(C)cccc2/C(=N\OC)C(=O)OC)cc1 [Ex. 181]
[1]
  PHAKPA (F129L) Disease level (%) P2 at 16 ppm: 12%
  % PHAKPA (F129L) Disease level P2 at 4 ppm: 22%
  % PHAKPA (F129L) Disease level P2 at 16 ppm: 11%
[2]
  PHAKPA (F129L) Disease level (%) P6 at 16 ppm: 5%
  % PHAKPA (F129L) Disease level P6 at 4 ppm: 33%
  % PHAKPA (F129L) Disease level P6 at 16 ppm: 5%

## CO/C=C(/C(=O)OC)c1cccc(C)c1CO/N=C(\C)c1c(F)cccc1C(F)(F)F [compound 390]
[1]
  % PHAKPA (F129L) Disease level P2 at 4 ppm: 22%
  % PHAKPA (F129L) Disease level P2 at 16 ppm: 0%
[2]
  % PHAKPA (F129L) Disease level P6 at 4 ppm: 18%
  % PHAKPA (F129L) Disease level P6 at 16 ppm: 2%

## CNC(=O)/C(=N/OC)c1ccccc1CO/N=C(\C)c1cccc(Cl)c1 [reference compound]
[1]
  PHAKPA (F129L) Disease level (%) P2 at 4 ppm: 43%
[2]
  PHAKPA (F129L) Disease level (%) P6 at 4 ppm: 80%

## CNC(=O)/C(=N/OC)c1cccc(C)c1CO/N=C(/c1cccc(C(F)(F)F)c1)C(C)C [compound 207]
[1]
  % PHAKPA (F129L) Disease level P2 at 4 ppm: 40%
  % PHAKPA (F129L) Disease level P2 at 16 ppm: 11%
[2]
  % PHAKPA (F129L) Disease level P6 at 4 ppm: 83%
  % PHAKPA (F129L) Disease level P6 at 16 ppm: 5%

## CNC(=O)/C(=N/OC)c1cccc(CF)c1CO/N=C(\C)c1cccc(C(F)(F)F)c1 [compound 26]
[1]
  % PHAKPA (F129L) Disease level P2 at 4 ppm: 12%
  % PHAKPA (F129L) Disease level P2 at 16 ppm: 0%
[2]
  % PHAKPA (F129L) Disease level P6 at 4 ppm: 19%
  % PHAKPA (F129L) Disease level P6 at 16 ppm: 1%

## CNC(=O)/C(=N/OC)c1cccc(C)c1CO/N=C(\C)c1cc(Cl)ccc1C(F)(F)F [compound 245]
[1]
  % PHAKPA (F129L) Disease level P2 at 4 ppm: 28%
  % PHAKPA (F129L) Disease level P2 at 16 ppm: 8%
[2]
  % PHAKPA (F129L) Disease level P6 at 4 ppm: 13%
  % PHAKPA (F129L) Disease level P6 at 16 ppm: 2%

## CO/N=C(/C(=O)OC)c1ccccc1CO/N=C(\C)c1cccc(C)c1 [reference compound]
[1]
  PHAKPA (F129L) Disease level (%) P2 at 16 ppm: 93%
[2]
  PHAKPA (F129L) Disease level (%) P6 at 16 ppm: 83%

## CNC(=O)/C(=N/OC)c1cccc(C)c1CO/N=C(\C)c1ccccc1 [Ex. 31]
[1]
  PHAKPA (F129L) Disease level (%) P2 at 4 ppm: 0%
  % PHAKPA (F129L) Disease level P2 at 4 ppm: 0%
  % PHAKPA (F129L) Disease level P2 at 16 ppm: 0%
[2]
  PHAKPA (F129L) Disease level (%) P6 at 4 ppm: 12%
  % PHAKPA (F129L) Disease level P6 at 4 ppm: 4%
  % PHAKPA (F129L) Disease level P6 at 16 ppm: 0%

## CO/N=C(/C(=O)OC)c1cccc(C)c1CO/N=C(\C)c1ccc(Cl)c(C)c1 [compound 102]
[1]
  % PHAKPA (F129L) Disease level P2 at 4 ppm: 60%
  % PHAKPA (F129L) Disease level P2 at 16 ppm: 11%
[2]
  % PHAKPA (F129L) Disease level P6 at 4 ppm: 90%
  % PHAKPA (F129L) Disease level P6 at 16 ppm: 43%

## CNC(=O)/C(=N/OC)c1cccc(C)c1CO/N=C(\C)c1ccc(F)cc1F [compound 267]
[1]
  % PHAKPA (F129L) Disease level P2 at 4 ppm: 2%
  % PHAKPA (F129L) Disease level P2 at 16 ppm: 0%
[2]
  % PHAKPA (F129L) Disease level P6 at 4 ppm: 10%
  % PHAKPA (F129L) Disease level P6 at 16 ppm: 4%

## CO/N=C(/C(=O)OC)c1cccc(C)c1CO/N=C(\C)c1c(F)cccc1Cl [compound 283]
[1]
  % PHAKPA (F129L) Disease level P2 at 4 ppm: 83%
  % PHAKPA (F129L) Disease level P2 at 16 ppm: 30%
[2]
  % PHAKPA (F129L) Disease level P6 at 4 ppm: 87%
  % PHAKPA (F129L) Disease level P6 at 16 ppm: 22%

## CO/N=C(/C(=O)OC)c1cccc(C)c1CO/N=C(\C)c1cc(C)cc(C(F)(F)F)c1 [compound 65]
[1]
  % PHAKPA (F129L) Disease level P2 at 4 ppm: 93%
  % PHAKPA (F129L) Disease level P2 at 16 ppm: 77%
[2]
  % PHAKPA (F129L) Disease level P6 at 4 ppm: 100%
  % PHAKPA (F129L) Disease level P6 at 16 ppm: 87%

## CNC(=O)/C(=N/OC)c1ccccc1CO/N=C(\C)c1cccc(-c2noc(C(F)(F)F)n2)c1 [reference compound]
[1]
  PHAKPA (F129L) Disease level (%) P2 at 16 ppm: 23%
[2]
  PHAKPA (F129L) Disease level (%) P6 at 16 ppm: 32%

## C=C(C)c1cccc(/C(=N\OC)C(=O)NC)c1CO/N=C(\C)c1ccccc1 [compound 399]
[1]
  % PHAKPA (F129L) Disease level P2 at 4 ppm: 67%
  % PHAKPA (F129L) Disease level P2 at 16 ppm: 8%
[2]
  % PHAKPA (F129L) Disease level P6 at 4 ppm: 90%
  % PHAKPA (F129L) Disease level P6 at 16 ppm: 15%

## CO/C=C(/C(=O)OC)c1cccc(C)c1CO/N=C(\C)c1c(Cl)cc(Cl)cc1OC(F)(F)F [compound 436]
[1]
  % PHAKPA (F129L) Disease level P2 at 4 ppm: 70%
  % PHAKPA (F129L) Disease level P2 at 16 ppm: 15%
[2]
  % PHAKPA (F129L) Disease level P6 at 4 ppm: 73%
  % PHAKPA (F129L) Disease level P6 at 16 ppm: 27%

## CO/N=C(/C(=O)OC)c1cccc(CF)c1CO/N=C(\C)c1cccc(C(F)(F)F)c1 [compound 25]
[1]
  % PHAKPA (F129L) Disease level P2 at 4 ppm: 16%
  % PHAKPA (F129L) Disease level P2 at 16 ppm: 3%
[2]
  % PHAKPA (F129L) Disease level P6 at 4 ppm: 50%
  % PHAKPA (F129L) Disease level P6 at 16 ppm: 2%

## CNC(=O)/C(=N/OC)c1cccc(C)c1CO/N=C(\C)c1cccc(OC(F)(F)F)c1 [compound 29]
[1]
  % PHAKPA (F129L) Disease level P2 at 16 ppm: 0%
[2]
  % PHAKPA (F129L) Disease level P6 at 16 ppm: 0%

## CO/N=C(/C(=O)OC)c1cccc(C)c1CO/N=C(\C)c1ccc(C)cc1 [Ex. 5, Methyl (2E)-2-methoxyimino-2-[3-methyl-2-[[(E)-1-(p-tolyl)ethylideneamino]oxymethyl]phenyl]acetate]
[1]
  PHAKPA (F129L) Disease level (%) P2 at 16 ppm: 1%
  % PHAKPA (F129L) Disease level P2 at 4 ppm: 28%
  % PHAKPA (F129L) Disease level P2 at 16 ppm: 1%
[2]
  PHAKPA (F129L) Disease level (%) P6 at 16 ppm: 4%
  % PHAKPA (F129L) Disease level P6 at 4 ppm: 50%
  % PHAKPA (F129L) Disease level P6 at 16 ppm: 4%

## CO/N=C(/C(=O)OC)c1cccc(C)c1CO/N=C(\C)c1ccc(F)c(F)c1 [compound 129]
[1]
  % PHAKPA (F129L) Disease level P2 at 4 ppm: 28%
  % PHAKPA (F129L) Disease level P2 at 16 ppm: 1%
[2]
  % PHAKPA (F129L) Disease level P6 at 4 ppm: 24%
  % PHAKPA (F129L) Disease level P6 at 16 ppm: 2%

## CNC(=O)/C(=N/OC)c1cccc(C)c1CO/N=C(\C)c1ccc(C)c(C(F)(F)F)c1 [compound 230]
[1]
  % PHAKPA (F129L) Disease level P2 at 4 ppm: 22%
  % PHAKPA (F129L) Disease level P2 at 16 ppm: 1%
[2]
  % PHAKPA (F129L) Disease level P6 at 4 ppm: 73%
  % PHAKPA (F129L) Disease level P6 at 16 ppm: 4%

## CO/N=C(/C(=O)OC)c1cccc(C)c1CO/N=C(\C)c1ccc(Br)cc1 [compound 114]
[1]
  % PHAKPA (F129L) Disease level P2 at 4 ppm: 38%
  % PHAKPA (F129L) Disease level P2 at 16 ppm: 5%
[2]
  % PHAKPA (F129L) Disease level P6 at 4 ppm: 52%
  % PHAKPA (F129L) Disease level P6 at 16 ppm: 15%

## CNC(=O)/C(=N/OC)c1cccc(C)c1CO/N=C(\C)c1ccc(C)cc1OC(F)(F)F [compound 340]
[1]
  % PHAKPA (F129L) Disease level P2 at 4 ppm: 23%
  % PHAKPA (F129L) Disease level P2 at 16 ppm: 4%
[2]
  % PHAKPA (F129L) Disease level P6 at 4 ppm: 42%
  % PHAKPA (F129L) Disease level P6 at 16 ppm: 7%

## CNC(=O)/C(=N/OC)c1cccc(C)c1CO/N=C(\C)c1ccccc1C(F)(F)F [compound 38]
[1]
  % PHAKPA (F129L) Disease level P2 at 4 ppm: 37%
  % PHAKPA (F129L) Disease level P2 at 16 ppm: 4%
[2]
  % PHAKPA (F129L) Disease level P6 at 4 ppm: 47%
  % PHAKPA (F129L) Disease level P6 at 16 ppm: 1%

## CNC(=O)/C(=N/OC)c1cccc(C)c1CO/N=C(\CC1CC1)c1cccc(C(F)(F)F)c1 [compound 234]
[1]
  % PHAKPA (F129L) Disease level P2 at 4 ppm: 53%
  % PHAKPA (F129L) Disease level P2 at 16 ppm: 18%
[2]
  % PHAKPA (F129L) Disease level P6 at 4 ppm: 53%
  % PHAKPA (F129L) Disease level P6 at 16 ppm: 15%

## CNC(=O)/C(=N/OC)c1cccc(C)c1CO/N=C(/c1ccccc1)C(F)(F)F [compound 458]
[1]
  % PHAKPA (F129L) Disease level P2 at 4 ppm: 93%
  % PHAKPA (F129L) Disease level P2 at 16 ppm: 57%
[2]
  % PHAKPA (F129L) Disease level P6 at 4 ppm: 83%
  % PHAKPA (F129L) Disease level P6 at 16 ppm: 50%

## CNC(=O)/C(=N/OC)c1cccc(C)c1CO/N=C(\C)c1ccc(F)cc1 [compound 108]
[1]
  % PHAKPA (F129L) Disease level P2 at 4 ppm: 1%
  % PHAKPA (F129L) Disease level P2 at 16 ppm: 0%
[2]
  % PHAKPA (F129L) Disease level P6 at 4 ppm: 1%
  % PHAKPA (F129L) Disease level P6 at 16 ppm: 0%
